The values below come from PMC5756101 (Journal of neuro-oncology, 2017).

A short description of one data set: clinical. To be noted: human, in vivo.
Data set [1] concerns patients with recurrent malignant glioma. To be noted: single agent, cited from earlier work.
For the next data set, the system named is GBM. The settings on record: second line treatment of patients with GBM; cited from earlier work.

Read-outs that look alike come from different tables or passages of the source.

Take `Cn1cncc1[C@@](N)(c1ccc(Cl)cc1)c1ccc2c(c1)c(-c1cccc(Cl)c1)cc(=O)n2C` [tipifarnib, Tipifarnib]: the “change of AUC between daily or twice daily dosing” value in the data set “clinical” is listed as “do not seem to change significantly”. Also, the AUC in “clinical” (100 mg) was found to be 761.5 ± 468.8 ng·h/mL; in the data set “clinical” (100 mg, AUC) it was 904 ± 377 ng·h/mL. The molecule further displayed a T1/2 in “clinical” (100 mg) of 3.35 ± 1.29 h. The half-life in the data set “clinical” (100 mg, T1/2) was 6.57 ± 1.18 h. Also, the “predominant DLT” value in data set [1] (patients not taking EIAEDs) is on record as “myelosuppression”; in data set [1] (patients on EIAEDs) it was “rash”. In addition, the “AUC from 0–12 hours at MTD, those receiving EIAEDs compared with those not receiving EIAEDs” value in data set [1] is reported as “approximately halved”.
For the molecule bevacizumab, the “6-months progression free survival (PFS)” value in the data set on GBM is on record as 29–45%.
